Where two headings read alike, the source gives them in different places.
System: primary culture of rat embryo mesencephalic cells (microglia, astrocytes and neurons) exposed to LPS
Assay: Neuroprotective effect on damage induced by LPS on culture of mesencephalic neurons (NO, TNF-α, IL-1β, TH positive neurons)
Assay type: cell-based
Conditions: after 5 days of LPS exposure; for inhibition at 10 µM / inhibition at 50 µM: Rattus norvegicus, Neuron, 120 h, read-out: % reversion of TH positive neurons
Outline: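 E15 Wistar rat ventral mesencephalic cultures, day 7, pretreated 1 h with compound (0.1% DMSO) before LPS 10 ng/ml. NO (Griess) at 24 h and 5 days and IL-1β/TNF-α (ELISA) at 24 h, expressed vs LPS control = 100%; TH+ neurons counted by imaging at 5 days, vs non-intoxicated = 100%.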

Compound	inhibition at 10 µM (10 uM, list at threshold 15%) [%]	% decrease in NO release relative to LPS alone (50 uM) [%]	inhibition at 50 µM (50 uM, list at threshold 15%) [%]	inhibition at 50 µM (50 uM, list at threshold 50%) [%]	% decrease in NO release relative to LPS alone (10 uM) [%]
C[C@@H](O)CC(=O)SCCNC(=O)CCNC(=O)[C@H](O)C(C)(C)CO [Compound 38, S-2-{3-[(R)-2,4-dihydroxy-3,3-dimethylbutyrylamino]propionylamino} ethyl (R)-3-hydroxybutanethioate]	≥ 15	–	–	–	–
C[C@@H](O)CC(=O)CC(=O)SCCNC(=O)CCNC(=O)[C@H](O)C(C)(C)CO [Compound 42, (2R)-2,4-dihydroxy-N-[2-[(2-[[(5R)-5-hydroxy-3-oxohexanoyl]sulfanyl]ethyl)carbamoyl]ethyl]-3,3-dimethylbutanamide]	–	≥5	≥ 15	≥ 50	–
CC(C)(CO)[C@@H](O)C(=O)NCCC(=O)NCCSC(CC(=O)OCC[N+](C)(C)C)C(=O)O (stereo partly drawn) [Compound 51, [2-([3-carboxy-3-[(2-[3-[(2R)-2,4-dihydroxy-3,3-dimethylbutanamido]propanamido]ethyl)sulfanyl]propanoyl]oxy)ethyl]trimethylazanium]	–	–	≥ 15	≥ 50	≥5
CC(C)(COC(=O)OCC[N+](C)(C)C)[C@@H](O)C(=O)NCCC(=O)NCCSC(=O)CCC(=O)O [Compound 116, [2-([[(3R)-3-[[2-([2-[(3-carboxypropanoyl)sulfanyl]ethyl]carbamoyl)ethyl]carbamoyl]-3-hydroxy-2,2-dimethylpropoxy]carbonyl]oxy)ethyl]trimethylazanium]	≥ 15	–	–	–	–
COC(=O)CCC(=O)SCCNC(=O)CCNC(=O)[C@H](O)C(C)(C)COC(C)=O [Compound 138]	–	–	≥ 15	≥ 50	–
CC(=O)OCC(C)(C)[C@@H](O)C(=O)NCCC(=O)NCCSC(=O)CC(=O)CCC(=O)O [Compound 140, 6-[(2-[3-[(2R)-4-(acetyloxy)-2-hydroxy-3,3-dimethylbutanamido]propanamido]ethyl)sulfanyl]-4,6-dioxohexanoic acid]	–	–	≥ 15	≥ 50	–
COC(=O)CC(C(C)=O)C(=O)SCCNC(=O)CCNC(=O)[C@H](O)C(C)(C)CO (stereo partly drawn) [Compound 410]	–	≥10	≥ 15	–	–
CC(=O)SCCNC(=O)CCNC(=O)[C@H](O)C(C)(C)COC(=O)[C@@H](N)Cc1ccc(O)c(O)c1 [Compound 498, (3R)-3-[(2-[[2-(acetylsulfanyl)ethyl]carbamoyl]ethyl)carbamoyl]-3-hydroxy-2,2-dimethylpropyl (2S)-2-amino-3-(3,4-dihydroxyphenyl)propanoate]	–	–	≥ 15	–	–

— patent US20230107216A1, “PANTETHEINE DERIVATIVES AND USES THEREOF” (Comet Therapeutics, Inc., priority 2018, published 2023)
